Experimental data as given in patent US20150296790A1, “SILICON-CONTAINING COMPOUND AQUEOUS SOLUTION AND ANTIBACTERIAL/ANTIVIRAL AGENT INCLUDING SAID SOLUTION” (JEX CO., LTD., priority 2012, published 2015).

Experiment: Solubility of CD (clarity and stability, visual)
Assay type: physicochemical
Design: key to Solubility of CD: Stability: OK: When the aqueous CD solution did not exhibit the conditions such as presence of precipitates and deposits, the solution was considered as stable; NG: When the aqueous CD solution exhibited the conditions such as presence of precipitates and deposits, the solution was not considered as stable; key to Solubility of CD: Clarity: When the CD aqueous solution was clear, the solution was rated as “OK”; When the solution was not clear, the solution was rated as “NG”
Description: “Clarity” in “Solubility of CD” in the tables was determined by sequentially adding the CD and purified water at the respective ratio to a predetermined screw-cap bottle and stirring the mixture in the sealed bottle on a shaker to prepare the respective aqueous CD solution, which was then visually evaluated for clarity immediately after the preparation. When the CD aqueous solution was clear, the solution was rated as “OK”. When the solution was not clear, the solution was rated as “NG”. “Stability” in “Solubility of CD” in the tables was determined by allowing the respective aqueous CD solution after preparation to stand at ambient temperature for a predetermined period and then visually evaluating the conditions (such as presence of precipitates and deposits) of the solution.

[1] = Ratio of CD Alone 1 w/w % in purified water
[2] = Ratio of CD Alone 2-6 w/w % in purified water
[3] = Ratio of CD Alone 7 w/w % in purified water
[4] = Ratio of CD Alone 8-10 w/w % in purified water
[5] = Ratio of CD Alone 2-10 w/w % in purified water
[6] = Ratio of CD Alone 2 w/w % in purified water
[7] = Ratio of CD Alone 3 w/w % in purified water
[8] = Ratio of CD Alone 4-5 w/w % in purified water
[9] = Ratio of CD Alone 6 w/w % in purified water
[10] = Ratio of CD Alone 7-9 w/w % in purified water
[11] = Ratio of CD Alone 10 w/w % in purified water
[12] = Ratio of CD Alone 15 w/w % in purified water
[13] = Ratio of CD Alone 20 w/w % in purified water
[14] = Ratio of CD Alone 25 w/w % in purified water

OC[C@H]1O[C@@H]2O[C@H]3[C@H](O)[C@@H](O)[C@@H](O[C@H]4[C@H](O)[C@@H](O)[C@@H](O[C@H]5[C@H](O)[C@@H](O)[C@@H](O[C@H]6[C@H](O)[C@@H](O)[C@@H](O[C@H]7[C@H](O)[C@@H](O)[C@@H](O[C@H]1[C@H](O)[C@H]2O)O[C@@H]7CO)O[C@@H]6CO)O[C@@H]5CO)O[C@@H]4CO)O[C@@H]3CO [α, α-cyclodextrin]
OK: Solubility of CD: Clarity [1] | Solubility of CD: Stability [1] | Solubility of CD: Clarity [2] | Solubility of CD: Stability [2] | Solubility of CD: Clarity [3] | Solubility of CD: Stability [3]
NG: Solubility of CD: Clarity [4] | Solubility of CD: Stability [4]

OC[C@H]1O[C@@H]2O[C@H]3[C@H](O)[C@@H](O)[C@@H](O[C@H]4[C@H](O)[C@@H](O)[C@@H](O[C@H]5[C@H](O)[C@@H](O)[C@@H](O[C@H]6[C@H](O)[C@@H](O)[C@@H](O[C@H]7[C@H](O)[C@@H](O)[C@@H](O[C@H]8[C@H](O)[C@@H](O)[C@@H](O[C@H]1[C@H](O)[C@H]2O)O[C@@H]8CO)O[C@@H]7CO)O[C@@H]6CO)O[C@@H]5CO)O[C@@H]4CO)O[C@@H]3CO [β, β-cyclodextrin]
NG: Solubility of CD: Clarity [5] | Solubility of CD: Stability [5]
OK: Solubility of CD: Clarity [1] | Solubility of CD: Stability [1]

OC[C@H]1O[C@@H]2O[C@H]3[C@H](O)[C@@H](O)[C@@H](O[C@H]4[C@H](O)[C@@H](O)[C@@H](O[C@H]5[C@H](O)[C@@H](O)[C@@H](O[C@H]6[C@H](O)[C@@H](O)[C@@H](O[C@H]7[C@H](O)[C@@H](O)[C@@H](O[C@H]8[C@H](O)[C@@H](O)[C@@H](O[C@H]9[C@H](O)[C@@H](O)[C@@H](O[C@H]1[C@H](O)[C@H]2O)O[C@@H]9CO)O[C@@H]8CO)O[C@@H]7CO)O[C@@H]6CO)O[C@@H]5CO)O[C@@H]4CO)O[C@@H]3CO [γ, γ-cyclodextrin]
OK: Solubility of CD: Clarity [1] | Solubility of CD: Stability [1] | Solubility of CD: Clarity [6] | Solubility of CD: Stability [6] | Solubility of CD: Clarity [7] | Solubility of CD: Stability [7] | Solubility of CD: Clarity [8] | Solubility of CD: Stability [8] | Solubility of CD: Clarity [9] | Solubility of CD: Stability [9] | Solubility of CD: Clarity [10] | Solubility of CD: Stability [10] | Solubility of CD: Clarity [11] | Solubility of CD: Stability [11] | Solubility of CD: Stability [12] | Solubility of CD: Stability [13]
NG: Solubility of CD: Clarity [12] | Solubility of CD: Clarity [13] | Solubility of CD: Clarity [14] | Solubility of CD: Stability [14]
